Reference: patent US20240423977A1, “FIVE-MEMBERED RING-FUSED SIX-MEMBERED RING COMPOUND, PREPARATION METHOD THEREFOR, AND PHARMACEUTICAL COMPOSITION AND USE THEREOF” (HANGZHOU POLYMED BIOPHARMACEUTICALS, INC., priority 2022, published 2024)

Columns and labels:
kinase IRAK4 = kinase IRAK4 (Homo sapiens (Human), UniProt Q9NWZ3); experiment: Inhibitory effects of compounds on kinase activity (fluorescence microfluidic mobility detection, competitive with ATP); assay type: biochemical; conditions: IRAK4 6 nM, ATP 10 μM
Description: Based on an experimental method of fluorescence microfluidic mobility detection, an IC50 value of competitive binding of kinase IRAK4 to ATP by the compounds was determined. The initial detection concentration of the compounds was 10 μM, diluted 4-fold gradient down to […], and tested in duplicate. Among them, commercial staurosporine was the standard control substance in this experiment.
1) IRAK4 kinase was dissolved in kinase buffer (50 mM HEPES pH 7.5, 10 mM MgCl2, 2 mM DTT and 0.01% Brij-35) to a final concentration of 6 nM.
2) The substrate peptide FAM-P8 and ATP were dissolved in the above kinase buffer. The final concentrations of the IRAK4 substrate peptide FAM-P8 and ATP were 3 μM and 10 μM respectively.
3) Dilution of the compounds: the compound was first diluted to 50 μM, and then diluted down with a 4-fold gradient of DMSO. The solution without the compound and kinase is used as a blank control, corresponding to the “minimum value” shown below; and the solution without the compound but with kinase, adenosine 5′-triphosphate disodium salt hydrate, DMSO and buffer is used as a positive control, corresponding to the “maximum value” shown below. 4) Kinase reaction and termination: 10 μL of kinase buffer was added to a 384-well plate containing 5 μL of the compound to be tested, and incubated at room temperature for 10 minutes. Another 10 μL of buffer containing the substrate peptide and adenosine 5′-triphosphate disodium salt hydrate was added to the 384-well plate. After incubation at 28° C. for one hour, 25 μL stop solution (100 mM HEPES pH 7.5, 50 mM EDTA, 0.2% Coating Reagent #3 and 0.015% Brij-35) was added to each well to terminate the reaction.
5) Data reading: the CaliperEZ Reader II instrument was used to read the conversion rate data. Conditions: downstream voltage −500V, upstream voltage −2250V, base pressure −0.5 PSI, and screening pressure −1.2 PSI.
6) Data calculation: the conversion rate data was copied from CaliperEZ Reader II and converted into inhibition rate data. The calculation formula is as follows:
[formula] • IC50 values were fitted using XLFit excel add-in version 5.4.0.8,
Y=Bottom+(Top−Bottom)/(1+(IC50/X)^HillSlope) Fitting formula: […]

[1] = target: IRAK4 protein in THP-1 cells (Homo sapiens (Human), UniProt Q9NWZ3); experiment: PROTAC-induced IRAK4 protein degradation in THP-1 cells (Western Blot); assay type: cell-based; conditions: for DC50: concentration that degraded 50% of IRAK4, Western blotting, 24 hours after administration; for IRAK4 degradation rate 24 hours after administration of the compounds with a concentration of 1 μM: Western blotting
Description: 2.1 Based on the experimental method of Western Blot, specific antibodies were used to stain the THP-1 cell samples treated by gel electrophoresis, and the degrading activity of the compounds on the IRAK4 protein in THP-1 cells was determined by analyzing the position and depth of staining. The concentrations of compound for the detection included 0 μM, 0.3 μM, 1 μM and 3 μM, and the cells were treated by the compound for 8 hours, 16 hours, 24 hours, and 48 hours. Glyceraldehyde-3-phosphate dehydrogenase (GAPDH) is an internal reference protein in this experiment.
Electrophoresis buffer: 50 mL MOPS SDS Running Buffer (20×) and 50 mL 20×TBS Tween-20 buffer were diluted with deionized water to 1 L as the electrophoresis buffer;
5% skim milk (w/v): 2.5 g skim milk was diluted with 50 mL 1×TBS Tween-20 buffer to prepare 5% skim milk;
5% BSA (w/v): 2.5 g BSA was diluted with 50 mL 1×TBS Tween-20 buffer to prepare 5% BSA;
Anti-IRAK4 antibody was diluted with 5% BSA at 1:1000 into a primary antibody working solution;
Goat Anti-Rabbit IgG H&L (HRP) was diluted with 5% BSA at 1:2000 into a second antibody working solution; and
Goat Anti-Mouse IgG H&L (HRP) was diluted with 5% BSA at 1:2000 into a second antibody working solution.
THP-1 cells were plated in a 6-well plate at a density of 1.5×10^6 cells per ml and incubated for 2 hours in a cell culture incubator under 37° C. and 5% CO2. The compound was diluted with DMSO to 0.6 mM, 0.2 mM and 0.06 mM respectively. 10 μL of compound solution was added to the corresponding wells, and continued to incubate in the incubator for 16 hours, 24 hours and 48 hours respectively. The compound-treated THP-1 cells in the well were collected, added with 120 μL of RIPA lysate containing protease inhibitor, Phosphatase Inhibitor Cocktail 2 and Phosphatase Inhibitor Cocktail 3, lysed on wet ice for 30 minutes, and then the cells lysate was centrifuged at a high speed and a low temperature for 5 minutes to collect the supernatant. The protein concentration of the cell sample was determined according to the instructions in the Pierce™ BCA Protein Assay Kit.
The concentration of the sample was adjusted to be consistent using lysis buffer and NuPAGE® LDS sample buffer containing 1M DTT. The samples were heated at 95° C. for 5 minutes and centrifuged at a low temperature and at a high speed. 20 μL of the prepared protein sample and 4 μL of PageRuler Prestained Protein Ladder were added into the gel well for running at 80V voltage for 0.5 hours, then the voltage was adjusted to 120V for further running for 1.5 hours. The gel was removed and the proteins in the gel were transferred to the IBlotTM 2 transfer membrane set at 20V. After successful transfer, bands at 65 kDa-40 kDa and 40 kDa-30 kDa were cut respectively. The membranes were blocked with 5% skim milk for 1 hour at room temperature. The membranes were washed three times with 1× concentration of TBST, then incubated with IRAK4 antibody working solution overnight at 4° C. The IRAK4 antibody working solution was discarded, and the membranes were washed three times with 1×concentration of TBST, and incubated with Goat Anti-Rabbit IgG H&L (HRP) working solution and Goat Anti-Mouse IgG H&L (HRP) working solution at room temperature. After 1 hour of incubation, the antibody working solution was discarded and the membranes were washed three times with 1× concentration of TBST. According to the instructions of the kit SuperSignal™ West Femto Maximum Sensitivity Substrate, the reagents in the kit were mixed in equal volume proportions to prepare a luminescent liquid mixture. The membranes were incubated for 1 minute, then removed for exposure.
The results of Western blotting 24 hours after administration of the compounds with a concentration of 1 μM were shown in Table 3: […]

Chain of IRAK4 protein in THP-1 cells (Q9NWZ3 whole entry): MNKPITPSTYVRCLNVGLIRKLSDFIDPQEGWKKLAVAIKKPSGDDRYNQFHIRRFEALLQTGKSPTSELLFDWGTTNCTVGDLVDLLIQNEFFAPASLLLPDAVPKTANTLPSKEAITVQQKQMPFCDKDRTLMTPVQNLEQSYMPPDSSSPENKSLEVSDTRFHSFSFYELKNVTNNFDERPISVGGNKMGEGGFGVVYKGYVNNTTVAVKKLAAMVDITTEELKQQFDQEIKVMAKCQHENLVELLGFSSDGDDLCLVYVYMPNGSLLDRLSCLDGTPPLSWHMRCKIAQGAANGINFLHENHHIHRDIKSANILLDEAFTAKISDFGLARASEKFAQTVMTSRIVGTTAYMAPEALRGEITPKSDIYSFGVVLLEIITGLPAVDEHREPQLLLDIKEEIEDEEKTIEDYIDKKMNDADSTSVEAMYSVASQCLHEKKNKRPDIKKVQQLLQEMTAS
Chain of kinase IRAK4 (Q9NWZ3 whole entry): as above

| SMILES | IC50 (kinase IRAK4; Table 2, substrate FAM-P8 3 μM) [nM] | DC50 [1] [nM] | IC50 (kinase IRAK4; Table 1, class symbols) [nM] | IRAK4 degradation rate 24 hours after administration of the compounds with a concentration of 1 μM [1] |
| --- | --- | --- | --- | --- |
| COc1cc2nn(C3CC4(CCN(C(=O)C5CCN(c6cccc7c6C(=O)N(C6CCC(=O)NC6=O)C7=O)CC5)CC4)C3)cc2cc1NC(=O)c1cccc(C(F)(F)F)n1 (stereo not drawn) [Compound I-25] | 20.4 | > 1000 | – | – |
| COc1cc2nn(C3CC4(CCN(C(=O)C5CC6(C5)CN(c5ccc7c(c5)C(=O)N(C5CCC(=O)NC5=O)C7=O)C6)CC4)C3)cc2cc1NC(=O)c1cccc(C(F)(F)F)n1 (stereo not drawn) [Compound I-17] | 31 | 25.9 | – | – |
| COc1cc2nn([C@H]3C[C@@H]4CN(C(=O)C5CCN(c6ccc7c(c6)C(=O)N(C6CCC(=O)NC6=O)C7=O)CC5)C[C@@H]4C3)cc2cc1NC(=O)c1cccc(C(F)(F)F)n1 (stereo partly drawn) [Compound I-28] | 12.5 | 8.3 | – | – |
| COc1cc2nn(C3CCN(C(C)C(=O)N4CCN(c5ccc6c(c5)C(=O)N(C5CCC(=O)NC5=O)C6=O)CC4)CC3)cc2cc1NC(=O)c1cccc(C(F)(F)F)n1 (stereo not drawn) [II-10] | 7.45 | 5.98 | < 100 | – |
| COc1cc2nn(C3CC4(CCC(C(=O)N5CCN(c6ccc7c(c6)C(=O)N(C6CCC(=O)NC6=O)C7=O)CC5)CC4)C3)cc2cc1NC(=O)c1cccc(C(F)(F)F)n1 (stereo not drawn) [Compound I-20] | 23.6 | 11.2 | – | – |
| COc1cc2nn(C3CC4(CCN(C5CC6(CCN(c7ccc8c(c7)C(=O)N(C7CCC(=O)NC7=O)C8=O)CC6)C5)CC4)C3)cc2cc1NC(=O)c1cccc(C(F)(F)F)n1 (stereo not drawn) [Compound I-24] | 17.4 | 15.3 | – | – |
| COc1cc2nn(C3CC4(CCN(C(=O)C5CCN(c6ccc7c(c6)C(=O)N(C6CCC(=O)NC6=O)C7=O)CC5)CC4)C3)cc2cc1NC(=O)c1cnn2ccc(N3C[C@H]4C[C@@H]3CO4)nc12 (stereo partly drawn) [Compound I-44] | 17 | 1.16 | – | – |
| COc1cc2nn(C3CC4(CCN(C(=O)C5(O)CCN(c6ccc7c(c6)C(=O)N(C6CCC(=O)NC6=O)C7=O)CC5)CC4)C3)cc2cc1NC(=O)c1cccc(C(F)(F)F)n1 (stereo not drawn) [Compound I-33] | 26.5 | 8.05 | – | – |
| COc1cc2nn(C3CCN(C4CC5(CCN(c6ccc7c(c6)C(=O)N(C6CCC(=O)NC6=O)C7=O)CC5)C4)CC3)cc2cc1NC(=O)c1cccc(C(F)(F)F)n1 (stereo not drawn) [II-12] | 14.2 | 20.5 | < 100 | – |
| COc1cc2nn(C3CC4(CCN(C(=O)C5CCN(c6cc7c(cc6F)C(=O)N([C@@H]6CCC(=O)NC6=O)C7=O)CC5)CC4)C3)cc2cc1NC(=O)c1cccc(C(F)(F)F)n1 [Compound I-62] | 19 | 3.26 | – | – |
| COc1cc2c(cnn2C2CC3(CCC(C(=O)N4CCN(c5ccc6c(c5)C(=O)N(C5CCC(=O)NC5=O)C6=O)CC4)CC3)C2)cc1NC(=O)c1cccc(C(F)(F)F)n1 (stereo not drawn) [Compound I-56] | 1960 | – | – | – |
| COc1cc2nn(C3CC4(CCN(CC(=O)N5CCN(c6ccc7c(c6)C(=O)N(C6CCC(=O)NC6=O)C7=O)CC5)CC4)C3)cc2cc1NC(=O)c1cccc(C(F)(F)F)n1 (stereo not drawn) [Compound I-2] | 11 | 4.41 | < 100 | 75~100% |
| COc1cc2nn(C3CCN(CC(=O)N4CCN(c5cc6c(cc5F)C(=O)N(C5CCC(=O)NC5=O)C6=O)CC4)CC3)cc2cc1NC(=O)c1cccc(C(F)(F)F)n1 (stereo not drawn) [II-5] | 11 | 6.15 | < 100 | 75~100% |
| COc1cc2nn(C3CC4(CCN(CC5CCN(c6ccc7c(c6)C(=O)N(C6CCC(=O)NC6=O)C7=O)CC5)CC4)C3)cc2cc1NC(=O)c1cccc(C(F)(F)F)n1 (stereo not drawn) [Compound I-13] | 4.81 | 15.8 | < 100 | – |
| COc1cc2nn(C3CC4(CCN(C(=O)C5CCN(c6cc7c(cc6F)C(=O)N([C@H]6CCC(=O)NC6=O)C7=O)CC5)CC4)C3)cc2cc1NC(=O)c1cccc(C(F)(F)F)n1 [Compound I-61] | 31.4 | 7.62 | – | – |
| COc1cc2nn(C3CC4(CCN(C(=O)C5CCN(c6ccc7c(c6)C(=O)N(C6CCC(=O)NC6=O)C7=O)CC5)CC4)C3)cc2cc1NC(=O)c1cccc(C)n1 (stereo not drawn) [Compound I-38] | 14.1 | 2.61 | – | – |
| COc1cc2nn(C3CC4(CCN(C(=O)C5(C)CCN(c6ccc7c(c6)C(=O)N(C6CCC(=O)NC6=O)C7=O)CC5)CC4)C3)cc2cc1NC(=O)c1cccc(C(F)(F)F)n1 (stereo not drawn) [Compound I-37] | 29.9 | 20.7 | – | – |
| COc1cc2nn(C3CC4(CCN(C(=O)C5CCN(c6ccc7c(c6)C(=O)N(C6CCC(=O)NC6=O)C7=O)CC5)CC4)C3)cc2cc1NC(=O)c1cnn2ccc(N3CCN(C)CC3)nc12 (stereo not drawn) [Compound I-49] | 13.4 | 9.79 | – | – |
| COc1cc2nn(C3CCN(C4CCN(C(=O)c5ccc6c(c5)C(=O)N(C5CCC(=O)NC5=O)C6=O)CC4)CC3)cc2cc1NC(=O)c1cccc(C(F)(F)F)n1 (stereo not drawn) [II-17] | 11 | > 1000 | < 100 | <25% |
| COc1cc2nn(C3CC4(CCN(C(=O)C5CCN(c6ccc7c(c6)C(=O)N([C@@H]6CCC(=O)NC6=O)C7=O)CC5)CC4)C3)cc2cc1NC(=O)c1cccc(C(F)(F)F)n1 [Compound I-58] | 35.1 | 2.67 | – | – |
| COc1cc2nn(C3CC4(CCN(c5cnn(C6CCN(c7ccc8c(c7)C(=O)N(C7CCC(=O)NC7=O)C8=O)CC6)c5)CC4)C3)cc2cc1NC(=O)c1cccc(C(F)(F)F)n1 (stereo not drawn) [Compound I-32] | 34.8 | 33.8 | – | – |
| COc1cc2nn(C3CC4(CCN(C(=O)C5CCN(c6ccc7c(c6)C(=O)N(C6CCC(=O)NC6=O)C7=O)CC5(F)F)CC4)C3)cc2cc1NC(=O)c1cccc(N2CCOCC2)n1 (stereo not drawn) [Compound I-55] | 34.3 | 14.6 | – | – |
| COc1cc2nn(C3CC4(CCN(C(=O)[C@H]5CC[C@H](C(=O)N[C@H](C(=O)N6C[C@H](O)C[C@H]6C(=O)N[C@@H](C)c6ccc(-c7scnc7C)cc6)C(C)(C)C)CC5)CC4)C3)cc2cc1NC(=O)c1cccc(C(F)(F)F)n1 [Compound I-29] | 74 | 16.3 | – | – |
